What all share (assay type): cell-based, human
For experiment [1], the system named is HTT mRNA. The experiment can be described thus: Splicing RT-qPCR assay, HTT canonical (CJ) and alternative (AJ) junction mRNA. Particulars: for AC50: alternative junction mRNA, read-out: HTT AJ (AC50, increase in AJ mRNA); for pIC50: canonical junction mRNA. Put shortly: (§1)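 Read-out: one-step RT-qPCR on crude lysates measuring exon-exon junction isoforms, CJ for the canonical transcript and AJ for compound-induced exon inclusion. Normalization used PPIA for adherent A673 and GAPDH or GUSB for K562. Cells received 11 doses, 3-fold apart, top 10 uM, for 24 h.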

The subject of experiment [2] is MYB mRNA. The experiment in a line: Splicing RT-qPCR assay, MYB canonical (CJ) and alternative (AJ) junction mRNA. Particulars: for AC50: alternative junction mRNA, read-out: MYB AJ (AC50, increase in AJ mRNA); for pIC50: canonical junction mRNA. Put shortly:
as §1
Background: Real-time PCR tracks product formation cycle by cycle.

For experiment [3], the system named is SMN2 mRNA. The experiment can be described thus: Splicing RT-qPCR panel, SMN2 canonical junction (CJ) mRNA. Particulars: read-out: SMN2 CJ (decrease in CJ mRNA levels, IC50). A digest of the protocol: (§2)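 A673 cells (DMEM, 10% FBS) or K562 cells (IMDM, 10% FBS) treated 24 h at 37 °C with an 11-point 3-fold dilution, top 10 uM, DMSO ≤0.25%. Canonical-junction mRNA quantified in lysates by RT-qPCR, normalised to GAPDH, GUSB or PPIA and to DMSO (2^−ΔΔCt), then converted to % response.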

The subject of experiment [4] is Target C mRNA. The experiment in a line: Splicing RT-qPCR panel, Target C canonical junction (CJ) mRNA. The following applies: read-out: Target C CJ (decrease in CJ mRNA levels, IC50). A digest of the protocol:
as §2

[5] abbreviates: RT-qPCR, A673 or K562 cells, 24 hours treatment.
Setting [6] is: Homo sapiens, 24 h, RT-qPCR, A673 or K562 cells, 24 hours treatment, read-out: HTT CJ (IC50, decrease in CJ mRNA).
The mark [7] stands for this setting: Homo sapiens, qPCR panel, read-out: HTT CJ (decrease in CJ mRNA levels, IC50).
[8] abbreviates: Homo sapiens, RT-qPCR, A673 or K562 cells, 24 hours treatment.
Where [9] appears, read: Homo sapiens, qPCR panel, read-out: MYB CJ (decrease in CJ mRNA levels, IC50).
[10] abbreviates: Homo sapiens, RT-qPCR, A673 or K562 cells, 24 hours treatment, read-out: MYB CJ (IC50, decrease in CJ mRNA).

pIC50: −log10 of the molar value. Like-named read-outs stand apart in the source and are kept apart here.

The record followed here is patent publication US20250326748A1, “COMPOUNDS AND METHODS FOR MODULATING SPLICING” (REMIX THERAPEUTICS INC., priority 2022, published 2025).

The AC50 is the concentration at which the activity in the assay is half-maximal. As a reminder, the pIC50 is −log10 of the IC50, conventionally taken in molar units.

As to `Cc1c(O)c(-c2cc(Cl)c3cc(N4C[C@@H](C)N[C@@H](C)C4)cnc3n2)cc2cn(C)nc12` [Compound 207, 5-{4-chloro-6-[(3R,5S)-3,5-dimethylpiperazin-1-yl]-1,8-naphthyridin-2-yl}-2,7-dimethylindazol-6-ol], the AC50 in experiment [1] (setting [5]) is 100 to 1000 nM; in experiment [2] (setting [5]), less than 100 nM. Besides, the pIC50 was greater than 7.00 in experiment [1] (RT-qPCR, A673 or K562 cells, 24 hours treatment, read-out: HTT CJ (IC50, decrease in CJ mRNA)); greater than 7.00 in experiment [1] (qPCR panel, read-out: HTT CJ (decrease in CJ mRNA levels, IC50)); greater than 7.00 in experiment [2] (RT-qPCR, A673 or K562 cells, 24 hours treatment, read-out: MYB CJ (IC50, decrease in CJ mRNA)); greater than 7.00 in experiment [2] (qPCR panel, read-out: MYB CJ (decrease in CJ mRNA levels, IC50)); greater than 7.00 in experiment [3]; 6.00 to 7.00 in experiment [4].

Take `C[C@@H]1CN(c2cnc3nc(-c4cc5cn(C)nc5cc4O)cc(Cl)c3c2)C[C@H](C)N1` [Compound 208]: the pIC50 in experiment [1] (setting [6]) was 5.00 to 6.00; in experiment [1] (setting [7]) it was 5.00 to 6.00; in experiment [2] (setting [9]), greater than 7.00; in experiment [2] (setting [10]) it was greater than 7.00; in experiment [3] (Homo sapiens), greater than 7.00; in experiment [4] (Homo sapiens), 5.00 to 6.00. The AC50 was 1000 to 10000 nM in experiment [1] (setting [8]) and less than 100 nM in experiment [2] (setting [8]).

Regarding `Cn1cc2cc(-c3cc(Cl)c4cc(N5CCNC(C6CC6)C5)cnc4n3)cc(F)c2n1` (stereo not drawn) [Compound 209, 4-chloro-6-(3-cyclopropylpiperazin-1-yl)-2-(7-fluoro-2-methylindazol-5-yl)-1,8-naphthyridine], the pIC50 in experiment [1] (setting [6]) was 5.00 to 6.00; in experiment [1] (setting [7]), 5.00 to 6.00; in experiment [2] (setting [9]), 6.00 to 7.00; in experiment [2] (setting [10]) it was 6.00 to 7.00; in experiment [3] (Homo sapiens), greater than 7.00; in experiment [4] (Homo sapiens), 5.00 to 6.00. Besides, the figures for the AC50 in experiment [1] (setting [8]) and in experiment [2] (setting [8]) were 1000 to 10000 nM and 100 to 1000 nM, respectively.

As for `Cc1cn2nc(-c3ccc4cc(NC5CCNCC5)cnc4n3)cc(C)c2n1` [Compound 210, 7-{2,8-dimethylimidazo[1,2-b]pyridazin-6-yl}-N-(piperidin-4-yl)-1,8-naphthyridin-3-amine; trifluoroacetic acid], the pIC50 in experiment [1] (setting [6]) is 5.00 to 6.00; in experiment [1] (setting [7]), 5.00 to 6.00; in experiment [2] (setting [9]), 5.00 to 6.00; in experiment [2] (setting [10]), 5.00 to 6.00; in experiment [3] (Homo sapiens), 6.00 to 7.00; in experiment [4] (Homo sapiens) it was less than 5.00. The concentration at half-maximal activity (AC50) in experiment [1] (setting [8]) and in experiment [2] (setting [8]) was 1000 to 10000 nM throughout.

`CN[C@@H]1CCN(c2cnc3nc(-c4cc5cn(C)nc5c(C)c4O)nc(OC)c3c2)C1` [Compound 211, 5-{4-methoxy-6-[(3R)-3-(methylamino)pyrrolidin-1-yl]pyrido[2,3-d]pyrimidin-2-yl}-2,7-dimethylindazol-6-ol]: the pIC50 in experiment [1] (setting [6]) is greater than 7.00; in experiment [1] (setting [7]), greater than 7.00; in experiment [2] (setting [9]) it was greater than 7.00; in experiment [2] (setting [10]), greater than 7.00; in experiment [3] (Homo sapiens), greater than 7.00; in experiment [4] (Homo sapiens) it was 6.00 to 7.00. Besides, the AC50 in experiment [1] (setting [8]) and in experiment [2] (setting [8]) was less than 100 nM in each case.

Regarding `CN[C@H]1CCN(c2cnc3nc(-c4cc5cn(C)nc5c(C)c4O)nc(OC)c3c2)C1` [Compound 212, 5-{4-methoxy-6-[(3S)-3-(methylamino)pyrrolidin-1-yl]pyrido[2,3-d]pyrimidin-2-yl}-2,7-dimethylindazol-6-ol], the pIC50 was greater than 7.00 in experiment [1] (setting [6]); greater than 7.00 in experiment [1] (setting [7]); greater than 7.00 in experiment [2] (setting [9]); greater than 7.00 in experiment [2] (setting [10]); greater than 7.00 in experiment [3] (Homo sapiens); 5.00 to 6.00 in experiment [4] (Homo sapiens). Also, the AC50 in experiment [1] (setting [8]) is 100 to 1000 nM; in experiment [2] (setting [8]) it was less than 100 nM.

Regarding `CNC1CCN(c2cnc3nc(-c4cc5cn(C)nc5cc4O)cc(Cl)c3c2)C1` (stereo not drawn) [Compound 213, 5-{4-chloro-6-[3-(methylamino)370pyrrolidine-1-yl]-1,8-naphthyridin-2-yl}-2-methylindazol-6-ol], the pIC50 in experiment [1] (setting [6]) is 6.00 to 7.00; in experiment [1] (setting [7]) it was 6.00 to 7.00; in experiment [2] (setting [9]), greater than 7.00; in experiment [2] (setting [10]), greater than 7.00; in experiment [3] (Homo sapiens) it was greater than 7.00; in experiment [4] (Homo sapiens), 5.00 to 6.00. Further, the values for the AC50 in experiment [1] (setting [8]) and in experiment [2] (setting [8]) were 100 to 1000 nM and less than 100 nM, respectively.

With `Cc1c(O)c(-c2ncc3cc(N4C[C@@H](C)N[C@@H](C)C4)cnc3n2)cc2cn(C)nc12` [Compound 214], the pIC50 is 6.00 to 7.00 in experiment [1] (setting [6]); 6.00 to 7.00 in experiment [1] (setting [7]); 6.00 to 7.00 in experiment [2] (setting [9]); 6.00 to 7.00 in experiment [2] (setting [10]); greater than 7.00 in experiment [3] (Homo sapiens); 5.00 to 6.00 in experiment [4] (Homo sapiens). The AC50 in experiment [1] (setting [8]) was in the range of 1000 to 10000 nM; in experiment [2] (setting [8]), 100 to 1000 nM.

For the compound `C[C@@H]1CN(c2cnc3nc(-c4cc(F)c5nn(C)cc5c4)cc(Cl)c3c2)C[C@H](C)N1` [Compound 215], the pIC50 in experiment [1] (setting [6]) was 5.00 to 6.00; in experiment [1] (setting [7]), 5.00 to 6.00; in experiment [2] (setting [9]), 6.00 to 7.00; in experiment [2] (setting [10]), 6.00 to 7.00; in experiment [3] (Homo sapiens), greater than 7.00; in experiment [4] (Homo sapiens), 5.00 to 6.00. The AC50 is 1000 to 10000 nM in experiment [1] (setting [8]) and 100 to 1000 nM in experiment [2] (setting [8]).

`Cn1cc2cc(-c3cc(Cl)c4cc(N5CCN6CCCC6C5)cnc4n3)cc(F)c2n1` (stereo not drawn) [Compound 216, 4-chloro-2-(7-fluoro-2-methylindazol-5-yl)-6-{hexahydro-1H-pyrrolo[1,2-a]pyrazin-2-yl}-1,8-naphthyridine trifluoroacetic acid]: the pIC50 was 5.00 to 6.00 in experiment [1] (setting [6]); 5.00 to 6.00 in experiment [1] (setting [7]); 6.00 to 7.00 in experiment [2] (setting [9]); 6.00 to 7.00 in experiment [2] (setting [10]); greater than 7.00 in experiment [3] (Homo sapiens); less than 5.00 in experiment [4] (Homo sapiens). In addition, the AC50 in experiment [1] (setting [8]) lay in the range of 1000 to 10000 nM; in experiment [2] (setting [8]) it was 100 to 1000 nM.

On to `Cc1c(O)c(-c2cc(-c3ccccn3)c3cc(N4C[C@@H](C)N[C@@H](C)C4)cnc3n2)cc2cn(C)nc12` [Compound 217, 5-{6-[(3R,5S)-3,5-dimethylpiperazin-1-yl]-4-(pyridin-2-yl)-1,8-naphthyridin-2-yl}-2,7-dimethylindazol-6-ol], for which the pIC50 in experiment [1] (setting [6]), in experiment [1] (setting [7]), in experiment [2] (setting [9]), in experiment [2] (setting [10]), in experiment [3] (Homo sapiens) and in experiment [4] (Homo sapiens) was less than 5.00 each time. Also, the AC50 in experiment [1] (setting [8]) and in experiment [2] (setting [8]) was greater than 10000 nM throughout.

Consider `COc1nc(-c2cc3cn(C)nc3c(F)c2O)nc2ncc(N3C[C@@H](C)N[C@@H](C)C3)cc12` [Compound 218], for which the pIC50 in experiment [1] (setting [6]) was greater than 7.00; in experiment [1] (setting [7]), greater than 7.00; in experiment [2] (setting [9]), greater than 7.00; in experiment [2] (setting [10]), greater than 7.00; in experiment [3] (Homo sapiens), greater than 7.00; in experiment [4] (Homo sapiens) it was 6.00 to 7.00. In addition, the AC50 in experiment [1] (setting [8]) was 100 to 1000 nM; in experiment [2] (setting [8]), less than 100 nM.

As to `COc1nc(-c2cc3cn(C)nc3c(F)c2O)nc2ncc(N3CCC(N(C)C)CC3)cc12` [Compound 219, 5-{6-[4-(dimethylamino)piperidin-1-yl]-4-methoxypyrido[2,3-d]pyrimidin-2-yl}-7-fluoro-2-methylindazol-6-ol], the pIC50 in experiment [1] (setting [6]) is greater than 7.00; in experiment [1] (setting [7]) it was greater than 7.00; in experiment [2] (setting [9]), greater than 7.00; in experiment [2] (setting [10]) it was greater than 7.00; in experiment [3] (Homo sapiens) it was greater than 7.00; in experiment [4] (Homo sapiens) it was 6.00 to 7.00. Besides, the results for the AC50 in experiment [1] (setting [8]) and in experiment [2] (setting [8]) were 100 to 1000 nM and less than 100 nM, respectively.

Consider `CN(C)[C@@H]1CCN(c2cnc3nc(-c4cc5cn(C)nc5c(F)c4O)cc(Cl)c3c2)C1` [Compound 220], for which the pIC50 in experiment [1] (setting [6]) is greater than 7.00; in experiment [1] (setting [7]), greater than 7.00; in experiment [2] (setting [9]), greater than 7.00; in experiment [2] (setting [10]) it was greater than 7.00; in experiment [3] (Homo sapiens) it was greater than 7.00; in experiment [4] (Homo sapiens), 6.00 to 7.00. In addition, the AC50 was 100 to 1000 nM in experiment [1] (setting [8]) and less than 100 nM in experiment [2] (setting [8]).

Turning to `CN(C)[C@H]1CCN(c2cnc3nc(-c4cc5cn(C)nc5c(F)c4O)cc(Cl)c3c2)C1` [Compound 221], the pIC50 was greater than 7.00 in experiment [1] (setting [6]); greater than 7.00 in experiment [1] (setting [7]); greater than 7.00 in experiment [2] (setting [9]); greater than 7.00 in experiment [2] (setting [10]); greater than 7.00 in experiment [3] (Homo sapiens); 6.00 to 7.00 in experiment [4] (Homo sapiens). Also, the AC50 in experiment [1] (setting [8]) was 100 to 1000 nM; in experiment [2] (setting [8]), less than 100 nM.
